In patent US20150087682A1, “Method for Treating Scleroderma” (The Regents of the University of Colorado, A body corporate, priority 2012, published 2015) one finds TLR4 binding data, which are given here for one molecule.

The target in this test is TLR4 (Homo sapiens, UniProt O00206). Put plainly: Inhibition of the TLR4 signaling pathway / TLR4 binding. On the procedure: These compounds were evaluated for inhibition of the TLR4 signaling pathway in vitro and in vivo.
TLR4, sequence (O00206 24-839, species assumed): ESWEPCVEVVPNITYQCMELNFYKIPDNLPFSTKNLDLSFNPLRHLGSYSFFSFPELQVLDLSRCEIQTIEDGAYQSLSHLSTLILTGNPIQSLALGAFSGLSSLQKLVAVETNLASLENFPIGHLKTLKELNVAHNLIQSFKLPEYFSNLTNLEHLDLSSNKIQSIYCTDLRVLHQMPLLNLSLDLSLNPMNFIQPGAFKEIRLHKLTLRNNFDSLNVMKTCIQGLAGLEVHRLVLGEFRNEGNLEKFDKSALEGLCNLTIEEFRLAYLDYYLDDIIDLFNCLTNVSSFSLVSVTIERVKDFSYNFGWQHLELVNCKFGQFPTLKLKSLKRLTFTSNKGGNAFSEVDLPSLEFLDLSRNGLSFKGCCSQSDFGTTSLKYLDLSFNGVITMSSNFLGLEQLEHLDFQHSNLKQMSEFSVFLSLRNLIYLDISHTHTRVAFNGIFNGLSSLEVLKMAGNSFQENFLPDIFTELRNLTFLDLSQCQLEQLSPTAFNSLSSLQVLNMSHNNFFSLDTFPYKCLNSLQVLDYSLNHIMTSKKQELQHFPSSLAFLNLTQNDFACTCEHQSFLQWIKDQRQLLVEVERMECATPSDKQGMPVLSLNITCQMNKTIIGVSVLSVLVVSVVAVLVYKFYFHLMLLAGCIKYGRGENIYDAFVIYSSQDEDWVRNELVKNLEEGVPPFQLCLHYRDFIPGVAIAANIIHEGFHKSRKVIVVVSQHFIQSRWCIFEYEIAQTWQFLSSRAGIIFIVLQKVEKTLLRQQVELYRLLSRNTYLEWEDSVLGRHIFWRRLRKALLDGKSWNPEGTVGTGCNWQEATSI

In the case of `CCOc1ccc(OCC(O)CN(C)Cc2c(C)nn(Cc3ccccc3Cl)c2C)cc1` (stereo not shown) [Compound A-1, 1-(((1-(2-chlorobenzyl)-3,5-dimethyl-1H-pyrazol-4-yl)methyl)(methyl)amino)-3-(4-ethoxyphenoxy)propan-2-ol], the TLR4 binding entry is “substantially inhibited TLR4 binding”.
